{"source": "patent US12482566B2", "about": "“Systems and methods for predicting cancer metastasis and screening of drugs” (MESTASTOP SOLUTIONS PRIVATE LIMITED, priority 2020, dated 2025)", "tested_on": "inducible engineered cell", "test": "Mesenchymal to Epithelial transition (MET) assay (D11), plasticity ratio from E-Cadherin and Vimentin markers", "format": "cell-based", "details": "10 mM RA; FIG. 12A; E-Cadherin (AF 647), Vimentin (AF 488); PR with no RA 1.3", "description": "FIGS. 12A and 12B depict an assay, Mesenchymal to Epithelial transition (MET) (D11), at various concentrations of Retinoic acid (RA) assessing markers E-Cadherin and Vimentin; and RA effect on expression of E-Cadherin and Vimentin in SW480 clone 1C3, respectively, according to embodiments as disclosed herein;\nFIGS. 12A and 12B are representations depicting assay for Mesenchymal to Epithelial transition (MET) (D11), at various concentrations of Retinoic acid (RA) measuring markers E-Cadherin and Vimentin; and RA effect on expression of E-Cadherin and Vimentin in SW480 clone 1C3, respectively. […] FIGS. 15A, 15B and 15C are representations depicting assay for Exosome vesicles secretion and uptake (D14), showing standard curve of exosome quantification; exosome secretion in colon cancer cells; and exosome uptake in cell lines.\nMesenchymal to Epithelial transition (MET) is the ability of the tumor cells to change from the moving cellular form, back to the growing cellular form. This is measured by detecting the change in the epithelial and mesenchymal cell markers, once cells are treated with agents promoting MET. […] Flow cytometry is used, along with imaging techniques like fluorescence markers using multiple proteins as markers, including but not limited to E cadherin, Vimentin, N Cadherin, Epcam, CD 133, CD 44, to measure MET. […]", "data": [{"smiles": "CC1=C(/C=C/C(C)=C/C=C/C(C)=C/C(=O)O)C(C)(C)CCC1", "note": "[RA, Retinoic acid]", "values": [{"measurement": "PR (plasticity ratio, mesenchymal marker Vimentin to epithelial marker E-Cadherin)", "result": 0.56}]}]}
